Reference: patent US7648824B2, “Method of sequencing DNA” (Qiagen GmbH, priority 2000, dated 2010)
“Also recorded” adds a separate entry of the source.

Columns and labels:
[1] = system: Enzyme mix (DNA polymerase, ATP-sulphurylase, apyrase and luciferase); test: Preincubation of Pyrosequencing reaction mixture with nucleotide, then PPi-based sequencing with ELIDA detection; format: biochemical; details: for inhibition of the sequencing reaction: preincubation with 5, 10 or 20 μl nucleotide for 10 minutes at room temperature without template, compared with 0 μl; for effect of preincubation on the sequencing reaction: similar experiment, nucleotides from prototype PSQ 96 SNP Reagent kit, 2 pmol template, control 1×TE, results not shown
Description: (§1) In this example, the inhibitory effect of dATPαS on a PPi-based sequencing reaction with ELIDA detection (known as Pyrosequencing) was investigated by preincubating the reaction mixture in the absence of template with varying amounts of the normal (i.e. racemic) dATPαS (containing both Rp and Sp isomers), or the pure Sp isomer of dATPαS. After preincubation, template was added and a normal “Pyrosequencing™”, reaction was carried out.
(§2) The “normal” dATPαS was taken from the PSQ 96 SNP Reagent kit supplied by Pyrosequencing AB (Uppsala, SE). The pure Rp and Sp isomers were purchased from Biolog Life Science (Bremen, Germany). The reaction mixture also included Enzyme mix (DNA polymerase, ATP-sulphurylase, apyrase and luciferase) and Substrate mix (luciferin and APS), from the PSQ 96 SNP Reagent kit supplied by Pyrosequencing AB. The template was an oligonucleotide (interactiva, Ulm, Germany) from which the following sequence could be read after annealing of a sequencing primer: […].
The pure isomer samples were diluted to the same concentration as the dATPαS in the PSQ 96 SNP Reagent kit. For preincubation, 0, 5, 10 or 20 μl of each A-sample (normal dATPαS or the Rp or Sp isomer) was added to a mixture containing 5 μl Enzyme mix, 5 μl Substrate mix in a total volume of 45 μl. The reaction was carried out in the 96 well plate delivered with the PSQ 96 SNP Reagent kit. The reaction was incubated at room temperature, in the dark for 10 minutes. After this, […] in 5 μl annealed oligonucleotide template was added to each well and the plate was transferred […] the PSQ 96 instrument, where a normal “Pyrosequencing™” reaction was carried out (omitting addition of Enzyme and Substrate mixes).
A similar experiment was also performed where the preincubation was carried out comparing “normal” dATPαS with dCTP, dGTP or dTTP, all from a prototype to the PSQ 96 SNP Reagent kit. As control, only 1×TE (dilution buffer for the dNTPs) was added. The template was the same as above, but 2 pmol were added to each well.

apyrase [2] = molecular target: T1, apyrase (Solanum tuberosum, UniProt P80595); test: Preincubation of Pyrosequencing reaction mixture with nucleotide, signal width; format: biochemical; details: preincubation with 5, 10 or 20 μl nucleotide for 10 minutes, compared with 0 μl
T1 construct: purchased Sigma Chemical Co., USA
T1 sequence (P80595 1-454): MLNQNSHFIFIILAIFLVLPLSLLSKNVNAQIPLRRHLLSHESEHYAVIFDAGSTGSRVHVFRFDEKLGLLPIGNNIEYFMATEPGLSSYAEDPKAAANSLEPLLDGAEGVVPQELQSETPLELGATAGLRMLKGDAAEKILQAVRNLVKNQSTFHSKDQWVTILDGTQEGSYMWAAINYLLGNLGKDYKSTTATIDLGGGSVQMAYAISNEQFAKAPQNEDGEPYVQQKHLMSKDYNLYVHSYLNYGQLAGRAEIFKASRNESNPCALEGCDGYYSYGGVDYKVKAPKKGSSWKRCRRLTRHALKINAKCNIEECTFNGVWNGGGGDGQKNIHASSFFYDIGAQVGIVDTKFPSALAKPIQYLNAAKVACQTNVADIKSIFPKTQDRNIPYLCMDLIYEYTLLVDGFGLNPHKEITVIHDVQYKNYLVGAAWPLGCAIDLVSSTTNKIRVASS
Description: as §1, §2
(§3) The pure isomer samples were diluted to the same concentration as the dATPαS in the PSQ 96 SNP Reagent kit. For preincubation, 0, 5, 10 or 20 μl of each A-sample (normal dATPαS or the Rp or Sp isomer) was added to a mixture containing 5 μl Enzyme mix, 5 μl Substrate mix in a total volume of 45 μl. The reaction was carried out in the 96 well plate delivered with the PSQ 96 SNP Reagent kit. […]

luciferase [3] = molecular target: T2, luciferase (Photinus pyralis, UniProt P08659); test: Preincubation of Pyrosequencing reaction mixture with nucleotide, signal intensity; format: biochemical; details: preincubation with 5, 10 or 20 μl nucleotide for 10 minutes, compared with 0 μl
T2 construct: purchased BioThema, Dalaro, Sweden
Description: as §1, §2, §3

luciferase [4] = molecular target: T2, luciferase; details: literature report, Ford et al., 1998; cited from earlier work
luciferase [5] = molecular target: T2, luciferase; test: Model system simulating PPi-based sequencing: nucleotide plus ATP added to luciferase/apyrase/substrate mixture, light signal height; format: biochemical; details: for luciferase activity (signal intensity, height of ascending curve): 50 additions of nucleotide + 2 μM ATP in 50 minutes, 100 ng luciferase, 50 mU apyrase, room temperature
Description: (§4) In this Example a series of 5 experiments were carried out to examine the inhibitory effect of each of the 5 nucleotides (dATP, dATPαS, dCTP, dGTP and dTTP) on the enzymes apyrase and luciferase. A model system was used which simulated the effects of these enzymes in a PPi-based sequencing reaction. Each nucleotide was added to the luciferase/apyrase/substrate mixture, along with ATP (to provide a substrate for luciferase), and the effect of each nucleotide addition on the enzymes was monitored by observing the light signals generated from the luciferase reaction.
(§5) The reactions were performed at room temperature in a volume of 50 μl on an automated prototype Pyrosequencer instrument (kindly supplied by Pyrosequencing AB, Uppsala, Sweden). The reaction mixture contained: 50 mU apyrase (Sigma Chemical Co., USA), 100 ng purified luciferase (BioThema, Dalaro, Sweden), 0.1 M Tris-acetate (pH 7.75), 0.5 mM EDTA, 5 mM magnesium acetate, 0.1% bovine serum albumin, 1 mM dithiothreitol, 0.4 mg/ml polyvinylpyrrolidone (360 000), and 100 μg/ml D-luciferin (BioThema). An ATP concentration of 2 μM was added to different nucleotides (dATP, dATPαS, dCTP, dGTP and dTTP), as shown in FIGS. 1 to 5 to follow the activity of luciferase and apyrase. For investigation of the effect of Shrimp Alkaline Phosphatase (Amersham Pharmacia Biotech, Uppsala, Sweden), two units of this enzyme were added to the reaction mixture—see further below. In total, 50 additions of nucleotide and ATP mixture were performed in 50 minutes. The output of light resulting from nucleotide incorporation was detected by a CCD-camera. The data was obtained in Excel format.

apyrase [6] = molecular target: T1, apyrase; test: Model system simulating PPi-based sequencing: nucleotide plus ATP added to luciferase/apyrase/substrate mixture, slope of descending curve / signal width; format: biochemical; details: for apyrase activity (slope of descending curve, signal width): 50 additions of nucleotide + 2 μM ATP in 50 minutes, 100 ng luciferase, 50 mU apyrase, room temperature
Description: as §4, §5

[7] = 0.7 mM dATPαS + 2 μM ATP, 50 cycles, 2 U alkaline phosphatase added

T2 sequence (P08659 whole entry): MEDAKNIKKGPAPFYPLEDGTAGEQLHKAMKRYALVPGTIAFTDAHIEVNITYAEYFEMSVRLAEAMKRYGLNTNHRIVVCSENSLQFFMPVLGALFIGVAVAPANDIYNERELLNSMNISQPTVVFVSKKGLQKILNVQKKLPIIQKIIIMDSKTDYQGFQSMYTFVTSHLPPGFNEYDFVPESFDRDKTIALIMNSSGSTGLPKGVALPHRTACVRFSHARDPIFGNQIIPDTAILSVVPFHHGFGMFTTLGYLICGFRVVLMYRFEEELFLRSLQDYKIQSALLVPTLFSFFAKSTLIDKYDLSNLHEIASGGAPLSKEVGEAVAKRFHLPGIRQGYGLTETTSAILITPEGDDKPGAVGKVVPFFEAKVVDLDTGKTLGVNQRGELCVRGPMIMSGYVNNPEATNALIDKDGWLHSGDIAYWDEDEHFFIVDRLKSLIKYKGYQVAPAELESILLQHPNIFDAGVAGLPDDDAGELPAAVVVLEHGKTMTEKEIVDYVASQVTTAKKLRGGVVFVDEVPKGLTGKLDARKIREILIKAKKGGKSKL

Row | SMILES | inhibition of the sequencing reaction [1] | luciferase activity (signal intensity, height of ascending curve) (luciferase [5]) | apyrase activity (slope of descending curve, signal width) (apyrase [6]) | effect of preincubation on the sequencing reaction [1] | also measured
1 | Nc1ncnc2c1ncn2[C@H]1C[C@H](O)[C@@H](COP(O)(=S)OP(=O)(O)OP(=O)(O)O)O1 (single isomer, unassigned) [Rp isomer] | Even more pronounced inhibition; also recorded: severe effect on all enzymes involved in the ELIDA detection | – | – | – | apyrase inhibition (signal width, signal definition) (apyrase [2]): increased signal width; luciferase inhibition (signal intensity, peak height) (luciferase [3]): signal intensity is decreased
2 | Nc1ncnc2c1ncn2[C@H]1C[C@H](O)[C@@H](COP(O)(=S)OP(=O)(O)OP(=O)(O)O)O1 (single isomer, unassigned) [Sp isomer] | significantly reduced | – | – | – | –
3 | Nc1ncnc2c1ncn2[C@H]1C[C@H](O)[C@@H](COP(=O)(O)O)O1 [dAMP] | – | – | – | – | inhibition of luciferase (luciferase [4]): inhibits luciferase
4 | Nc1ncnc2c1ncn2[C@H]1C[C@H](O)[C@@H](COP(=O)(O)OP(=O)(O)OP(=O)(O)O)O1 [dATP, deoxyadenosine triphosphate] | – | relatively linear decrease in signal intensity | – | – | –
5 | Nc1ncnc2c1ncn2[C@H]1C[C@H](O)[C@@H](COP(O)(=S)OP(=O)(O)OP(=O)(O)O)O1 (stereo partly drawn) [dATPαS, deoxyadenosine α-thiotriphosphate] | progressively severe inhibition | relatively linear decrease in signal intensity | drastically inhibited in later cycles | severe negative effect | luciferase activity (signal intensity) in the presence of alkaline phosphatase (luciferase [5]; [7]): no inhibition of luciferase; decrease in signal intensity after 50 cycles, less than that obtained with dATP (luciferase [5]; 0.7 mM nucleotide + 2 μM ATP, after 50 cycles, compared with dATP (FIG. 1)): 50%; apyrase activity (signal width) in the presence of alkaline phosphatase (apyrase [6]; [7]): lack of apyrase inhibition; apyrase inhibition (signal width, signal definition) (apyrase [2]): apyrase inhibition is particularly occurring; luciferase inhibition (signal intensity, peak height) (luciferase [3]): Some loss of signal intensity
6 | Nc1ccn([C@H]2C[C@H](O)[C@@H](COP(=O)(O)OP(=O)(O)OP(=O)(O)O)O2)c(=O)n1 [dCTP, deoxycytidine triphosphate] | – | do not inhibit luciferase or apyrase | do not inhibit luciferase or apyrase | no negative effect | –
7 | Nc1nc2c(ncn2[C@H]2C[C@H](O)[C@@H](COP(=O)(O)OP(=O)(O)OP(=O)(O)O)O2)c(=O)[nH]1 [dGTP, deoxyguanosine triphosphate] | – | do not inhibit luciferase or apyrase | do not inhibit luciferase or apyrase | no negative effect | –
8 | Cc1cn([C@H]2C[C@H](O)[C@@H](COP(=O)(O)OP(=O)(O)OP(=O)(O)O)O2)c(=O)[nH]c1=O [dTTP, deoxythymidine triphosphate] | – | do not inhibit luciferase or apyrase | do not inhibit luciferase or apyrase | no negative effect | –
